Source: patent US6150413A, “Triaromatic compounds and pharmaceutical/cosmetic compositions comprised thereof” (Centre International de Recherches Dermatologiques, priority 1997, dated 2000)

What was measured:
[1] = system: RAR; experiment: mouse-ear oedema induced by topical application of CD270 (test to identify RAR-antagonist molecules); format: in vivo; settings: for % of inhibition of the agonist activity: mouse-ear oedema, topical, agonist CD270 0.01% w/v; for RAR-antagonist classification from the mouse-ear oedema table: results in words
Text: (§1) The compounds according to the invention show activity in the test of differentiation of mouse embryonic teratocarcinoma cells (F9) (Cancer Research 43, p. 5268, 1983) and/or in the test of inhibition of ornithine decarboxylase after induction with TPA in mice (Cancer Research 38, p. 793-801, 1978). These tests show the activities of these compounds in the fields of cell differentiation and proliferation respectively. In the cell (F9) differentiation test, it is possible to evaluate an agonist activity as an antagonist activity to retinoic acid receptors. […] These compounds are thus also active in a test which consists in identifying RAR-antagonist molecules, as described in French patent application No. 95/07302 filed on Jun. 19, 1995 by the Applicant. This test comprises the following steps: (i) a sufficient amount of an RAR-agonist molecule is applied topically to an area of the skin of a mammal, (ii) a molecule capable of showing RAR-antagonist activity is administered systemically or topically to this same mammal or to this same area of the mammal's skin, before, during or after step (i), and (iii) the response on the area of the mammal's skin thus treated is evaluated. Thus, the response to a topical application to a mammal's ear of an RAR-agonist molecule, which corresponds to an increase in the thickness of that ear, can be inhibited by the systemic or topical administration of an RAR-antagonist molecule.
Results of a test to identify RAR-antagonist molecules, as described in French patent application No. 95/07302 filed on Jun. 19, 1995 by the Applicant.
The test used is that of mouse-ear oedema induced by topical application of 2-(5,6,7,8-tetrahydro-5,5,8,8-tetramethyl-2-naphthyl)-6-benzo[b]-thiophenecarboxylic acid (CD270) at a concentration of 0.01% on a weight per unit volume basis.
The response can be inhibited by the topical administration of a dose (expressed in % on a weight per unit volume basis) of compound X.

[2] = system: RAR; experiment: differentiation of mouse embryonic teratocarcinoma cells (F9), inhibition of the activity of agonist CD2043 (RAR-antagonist identification); format: cell-based; settings: for % of inhibition of the agonist activity: F9 cells, compound 10^-5 M, agonist CD2043 10^-8 M; for RAR-antagonist classification from the F9 table: results in words
Text: as §1
Results of a test of differentiation of mouse embryonic teratocarcinoma cells (F9) in order to identify RAR-antagonist molecules, described in Cancer Research 43, p. 5268, 1983.
In the test used, a compound is considered as being an RAR antagonist if it lowers the activity of the agonist (4-[(5,5,8,8-tetramethyl-5,6,7,8-tetrahydro-2-naphthylamino)methyl]benzoicacid, referred to as compound CD2043) on the morphology and secretion of the plasminogen activator by the F9 cells. In this test, the compounds are tested at 10^-5 M and the CD2043 is tested at 10^-8 M.

Compound	inflammation / thickness of the mouse's ear ([1]; topical CD270, 0.01% w/v, mouse ear)	% of inhibition of the agonist activity ([1]; dose 0.01% w/v) [%]	RAR-antagonist classification from the mouse-ear oedema table [1]	% of inhibition of the agonist activity [2] [%]	RAR-antagonist classification from the F9 table [2]	% of inhibition of the agonist activity ([1]; dose 0.1% w/v) [%]
CC1(C)CCC(C)(C)c2cc(-c3cc4ccc(C(=O)O)cc4s3)ccc21 [CD270, 2-(5,6,7,8-tetrahydro-5,5,8,8-tetramethyl-2-naphthyl)-6-benzo[b]-thiophenecarboxylic acid, reference compound]	causes an inflammation which is characterized by an increase in the thickness of the mouse's ear	–	–	–	–	–
O=C(O)c1ccc(C#C/C=C/c2ccccc2-c2ccccc2)cc1 [Example 1, 4-(4-Biphenyl-2-ylbut-3-en-(E)-1-ynyl)benzoic acid]	–	78	RAR-antagonist compounds	100	RAR-antagonist compounds	–
Cc1ccc(-c2ccccc2/C=C/C#Cc2ccc(C(=O)O)cc2)cc1 [Example 2, 4-[4-(4'-Methylbiphenyl-2-yl)but-3-en-(E)-1-ynyl]benzoic acid]	–	85	RAR-antagonist compounds	94	RAR-antagonist compounds	–
Cc1ccc(-c2cccc(F)c2/C=C/C#Cc2ccc(C(=O)O)cc2)cc1 [Example 11, 4-[4-(3-Fluoro-4'-methylbiphenyl-2-yl)but-3-en-(E)-1-ynyl]benzoic acid]	–	–	RAR-antagonist compounds	96	RAR-antagonist compounds	99
Cc1ccc(-c2ccc(C)cc2/C=C/C#Cc2ccc(C(=O)O)cc2)cc1 [Example 12, 4-[4-(4,4'-Dimethylbiphenyl-2-yl)but-3-en-1-ynyl]benzoic acid]	–	45	RAR-antagonist compounds	87	RAR-antagonist compounds	–
Cc1ccc(-c2c(C)cccc2/C=C/C#Cc2ccc(C(=O)O)cc2)cc1 [Example 14, 4-[4-(6,4'-Dimethylbiphenyl-2-yl)but-3-en-(E)-1-ynyl]benzoic acid]	–	–	–	95	–	93
COCOc1ccc(-c2ccc(C)cc2)c(/C=C/C#Cc2ccc(C(=O)O)cc2)c1 [Example 15, 4-[4-(4-Methoxymethoxy-4'-methylbiphenyl-2-yl)but-3-en-(E)-1-ynyl]benzoic acid]	–	43	–	93	–	–
COCOc1ccc(/C=C/C#Cc2ccc(C(=O)O)cc2)c(-c2ccc(C)cc2)c1 [Example 16, 4-[4-(5-Methoxymethoxy-4'-methylbiphenyl-2-yl)but-3-en-(E)-1-ynyl]benzoic acid]	–	34	–	92	–	–
COCOc1cccc(/C=C/C#Cc2ccc(C(=O)O)cc2)c1-c1ccc(C)cc1 [Example 17, 4-[4-(6-Methoxymethoxy-4'-methylbiphenyl-2-yl)but-3-en-(E)-1-ynyl]benzoic acid]	–	–	–	98	–	94
C/C(=C\C#Cc1ccc(C(=O)O)cc1)c1ccccc1-c1ccc(C)cc1 [Example 18, 4-[4-(4'-Methylbiphenyl-2-yl)pent-3-en-(E)-1-ynyl]benzoic acid]	–	–	–	69	–	41
COCOc1ccc(-c2ccccc2/C=C/C#Cc2ccc(C(=O)O)cc2)cc1 [Example 28, 4-[4-(4'-Methoxymethoxybiphenyl-2-yl)but-3-en-(E)-1-ynyl]benzoic acid]	–	31	RAR-antagonist compounds	96	RAR-antagonist compounds	–
COc1ccc(/C=C/C#Cc2ccc(C(=O)O)cc2)c(-c2ccc(C)cc2)c1 [Example 42, 4-[4-(4'-Methyl-5-methoxybiphenyl-2-yl)but-3-en-(E)-1-ynyl]benzoic acid]	–	26	–	91	–	–
CCCOc1ccc(/C=C/C#Cc2ccc(C(=O)O)cc2)c(-c2ccc(C)cc2)c1 [Example 43, 4-[4-(4'-Methyl-5-propoxybiphenyl-2-yl)but-3-en-(E)-1-ynyl]benzoic acid]	–	24	–	84	–	–
Cc1ccc(-c2c(O)cccc2/C=C/C#Cc2ccc(C(=O)O)cc2)cc1 [Example 44, 4-[4-(4'-Methyl-6-hydroxybiphenyl-2-yl)but-3-en-(E)-1-ynyl]benzoic acid]	–	–	–	97	–	54
COc1cccc(/C=C/C#Cc2ccc(C(=O)O)cc2)c1-c1ccc(C)cc1 [Example 45, 4-[4-(4'-Methyl-6-methoxybiphenyl-2-yl)but-3-en-(E)-1-ynyl]benzoic acid]	–	–	–	95	–	99
COCOc1cccc(-c2ccc(C)cc2)c1/C=C/C#Cc1ccc(C(=O)O)cc1 [Example 52, 4-[4-(3-Methoxymethoxy-4'-methylbiphenyl-2-yl)but-3-en-(E)-1-ynyl]benzoic acid]	–	–	RAR-antagonist compounds	97	RAR-antagonist compounds	97
